Data set [1] deals with T1, low affinity form of PDE 4 (human monocyte PDE 4 / hrPDE) (Homo sapiens, UniProt P27815).
T1 construct: made in house; host or cells: yeast
As to the kind of experiment: PDE 4 catalytic activity assay (low affinity form, LPDE 4). It is filed as biochemical. The note with it: HPDE 4 IC50/LPDE 4 IC50.
Description: Overall, most of the recombinant PDE 4 expressed in this system exists as LPDE 4 and only a small fraction as HPDE 4. Consequently, inhibition of recombinant PDE 4 catalytic activity primarily reflects the actions of compounds at LPDE 4. Inhibition of PDE 4 catalytic activity can thus be used as an index of the potency of compounds at LPDE 4.

In data set [2] the test system is acid secretion. The note with it: rats, particularly in combination with an activator of adenylate cyclase such as histamine; cited from earlier work.
For data set [3] the following is noted: clinical studies; cited from earlier work.
Data set [4] concerns the target high affinity rolipram binding site of PDE 4. As to the kind of experiment: [3H]-rolipram binding competition assay (high affinity form, HPDE 4). The note with it: competition for 1 nM [3H]-rolipram, rat brain high speed supernatants, 1 hour at 30° C.
Protocol: Rat brain high speed supernatants were used as a source of protein. […] The assay was run for 1 hour at 30° C. The reaction was terminated and bound ligand was separated from free ligand using a Brandel cell harvester. Competition for the high affinity binding site was assessed under conditions that were identical to those used for measuring low affinity PDE activity, expect that [^3H]-cAMP and [^3H]5′-AMP were not present.
The test system of data set [5] is TNFα production from isolated human monocytes; acid secretion in isolated rabbit parietal glands. Briefly: Therapeutic index, in vitro comparison: TNFα suppression in human monocytes versus acid secretion in rabbit parietal glands. The format is cell-based. The note with it: in comparison with R-rolipram.
Protocol: Samples were then centrifuged and radioactivity in aliquots of the supernatant fraction and pellet were determined. […] The data were expressed as a percent of a response produced by a maximal concentration of histamine (100 μM). EC50 values were determined by linear interpolation using the maximum response obtained for each compound.
TNFα inhibition was assessed in human peripheral blood monocytes which were purified (Collata) from freshly obtained buffy coats or plasma-phoresis residues of blood from normal human donors. […] The cells were allowed to adhere for 1 hr, after which time the supernatant was aspirated and 1 ml of fresh medium (RPMI-1640 containing 1% fetal calf serum and penicillin/streptomycin at 10 U/ml) was added. The cells were incubated for 45 min in the presence or absence of test compounds at concentrations ranging from 1 nM to 1 mM prior to the addition of LPS (E. coli. 055:B5, Sigma Chemicals) to yield a final concentration of 100 ng/ml. […]
Levels of TNFα were measured using a ELISA (Winston) employing a murine monoclonal anti-human TNFα antibody (see below) as the capture antibody and a polyclonal rabbit antihuman TNFα as the second antibody. […] TNFα levels in samples were calculated from a standard curve generated with recombinant human TNFα produced in E. coli. […]
In data set [6] the test system is COPD. As to the kind of experiment: Administration to humans suffering from COPD. It is filed as in vivo, human. The procedure: As regards treating COPD, the compound cis-[4-cyano-4-(3-cyclopentyloxy-4-methoxyphenyl)cyclohexan-1-carboxylate] was administered to humans suffering from COPD.

Structures are written as SMILES.

T1 sequence (P27815 1-686 isoform P27815-3): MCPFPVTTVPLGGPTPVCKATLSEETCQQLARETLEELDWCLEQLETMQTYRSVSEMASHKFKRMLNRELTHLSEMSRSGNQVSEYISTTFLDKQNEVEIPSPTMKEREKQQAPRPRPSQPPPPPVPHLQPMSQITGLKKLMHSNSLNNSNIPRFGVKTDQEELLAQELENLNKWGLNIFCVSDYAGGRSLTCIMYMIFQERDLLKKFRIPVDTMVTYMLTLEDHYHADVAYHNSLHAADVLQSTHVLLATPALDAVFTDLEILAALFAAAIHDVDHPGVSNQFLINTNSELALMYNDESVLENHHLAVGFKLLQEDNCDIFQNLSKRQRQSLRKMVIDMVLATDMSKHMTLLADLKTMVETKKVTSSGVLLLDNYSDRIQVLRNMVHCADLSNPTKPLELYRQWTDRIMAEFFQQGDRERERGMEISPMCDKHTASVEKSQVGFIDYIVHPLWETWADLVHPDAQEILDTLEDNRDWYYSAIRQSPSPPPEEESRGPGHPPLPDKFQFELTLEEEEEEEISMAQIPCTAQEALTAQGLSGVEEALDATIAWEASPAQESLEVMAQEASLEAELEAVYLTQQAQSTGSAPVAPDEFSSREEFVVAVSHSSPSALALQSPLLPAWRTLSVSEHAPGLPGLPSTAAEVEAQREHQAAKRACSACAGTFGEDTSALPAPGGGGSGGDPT

On to `NC(=O)C(=O)NCCc1ccc(OC(F)F)c(OC(F)F)c1` [N-[2-(3,4-bisdifluoromethoxy-phenyl)ethyl]oxamide], for which, in data set [1], the “High/Low Ratio (IC50 high affinity form divided by IC50 low affinity form)” value was 0.25.

Regarding `CCCCOc1cc(CC2CNC(=O)N2)ccc1OC` (centres unmarked) [Ro 20-1724], the acid secretion result in data set [2] is on record as “enhance acid secretion”.

For `OCCN(CCO)c1nc(N2CCCCC2)c2nc(N(CCO)CCO)nc(N3CCCCC3)c2n1` [dipyridamole, reference compound], in data set [1], the “High/Low Ratio (IC50 high affinity form divided by IC50 low affinity form)” value is given as 6.25. For `COc1ccc(C2CNC(=O)C2)cc1OC1CCCC1` (centres unmarked) [rolipram], in data set [3], the side effects entry was “has psychotropic activity and produces gastrointestinal effects”. Moreover, the acid secretion result in data set [2] is recorded as “enhance acid secretion”. For the compound `COc1ccc(C2CN(Cc3ccc(N)cc3)C(=O)N2)cc1OC1CCCC1` (centres unmarked) [1-(4-aminobenzyl)-4-(3-cyclopentyloxy-4-methoxyphenyl)-2-imidazolidinone], the “High/Low Ratio (IC50 high affinity form divided by IC50 low affinity form)” value in data set [1] is 0.07. `CCOC(=O)C=C1C[C@@H](c2ccc(OC)c(OC3CCCC3)c2)CN1` [(S)-(−)-ethyl[4-(3-cyclopentyloxy-4-methoxyphenyl)pyrrolidine-2-ylidene]acetate]: in data set [1], the “High/Low Ratio (IC50 high affinity form divided by IC50 low affinity form)” value is reported as “.98”. Same read-out and setting: as for `CC(C)Cn1c(=O)n(C)c(=O)c2[nH]cnc21` [IBMX, reference compound], the figure is 0.698. Consider `COc1ccc([C@@H]2CC[C@H](C(=O)O)C2)cc1OC1CCCC1` (relative stereo) [cis-[3-(3-cyclopentyloxy-4-methoxyphenyl)cyclopentane-1-carboxylate]], for which, in data set [1], the “High/Low Ratio (IC50 high affinity form divided by IC50 low affinity form)” value was found to be 0.0078. Moreover, in data set [4], the IC50 (in general, the concentration needed to halve the response being measured) amounted to 21 nM. In the case of `COc1ccc(C2CCN(Cc3ccc(NC(=NC#N)SC)cc3)C2=O)cc1OC1CCCC1` (centres unmarked) [3-(cyclopentyloxy-4-methoxyphenyl)-1-(4-N′-[N2-cyano-S-methyl-isothioureido]benzyl)-2-pyrrolidone], the “High/Low Ratio (IC50 high affinity form divided by IC50 low affinity form)” value in data set [1] is 0.30. As to `N#CC1(c2ccc(OC(F)F)c(OCC3CC3)c2)CCC(O)CC1` (stereo not drawn) [cis-[4-cyano-4-(3-cyclopropylmethoxy-4-difluoromethoxyphenyl)cyclohexan-1-ol]], in data set [5], the “improvement in therapeutic index” value amounted to 100 fold. Consider `COc1ccc(C2CCC(c3nnn[nH]3)C2)cc1OC1CCCC1` (centres unmarked) [1-(5-tetrazole)-3-(3-cyclopentyloxy-4-methoxyphenyl)cyclopentane], for which the “High/Low Ratio (IC50 high affinity form divided by IC50 low affinity form)” value in data set [1] is 0.0018. With `COC(=O)C1CC(C#N)(c2ccc(OC(F)F)c(OCC3CC3)c2)CCC1=O` (centres unmarked) [2-carbomethoxy-4-cyano-4-(3-cyclopropylmethoxy-4-difluoromethoxyphenyl)cyclohexan-1-one], the “improvement in therapeutic index” value in data set [5] is recorded as 100 fold.

Regarding `CCOC(=O)C=C1C[C@H](c2ccc(OC)c(OC3CCCC3)c2)CN1` [(R)-(+)-ethyl [4-(3-cyclopentyloxy-4-methoxyphenyl)pyrrolidine-2-ylidene]acetate], the “High/Low Ratio (IC50 high affinity form divided by IC50 low affinity form)” value in data set [1] worked out at 2.143. Regarding `COc1ccc(C2(C#N)CCC(C(=O)O)CC2)cc1OC1CCCC1` (stereo not drawn) [cis-[4-cyano-4-(3-cyclopentyloxy-4-methoxyphenyl)cyclohexan-1-carboxylate]], the “effect in subjects suffering from COPD” value in data set [6] is “reduced inflammation, bronchodilation and pulmonary neuromodulation”. In the case of `COc1ccc(CCNC(=O)C(N)=O)cc1OC1CCCC1` [N-[2-(3-cyclopentyloxy-4-methoxyphenyl)ethyl]oxamide], in data set [1], the “High/Low Ratio (IC50 high affinity form divided by IC50 low affinity form)” value was 0.013.
